# Values quoted from earlier work, collected in patent publication US12116608B2, “Extended metabolism methods for increasing and extracting metabolites from algae and microorganisms” (Synergraze Inc., priority 2022, dated 2024).
# Conditions: general description
smiles,measurement,value
BrC(Br)Br [bromoform],solubility in water,soluble in water
